Results taken from article PMC12668308, “A Novel Antimalarial Agent that Inhibits Protein Synthesis in Plasmodium falciparum” (Angewandte Chemie (International Ed. in English), 2025).

What was measured:
Test in all cases: [3H]-hypoxanthine incorporation assay
[1] = test system: P. falciparum Dd2; format: cell-based, Plasmodium falciparum
Procedure: (§1) ^[a]72-h [^3H] hypoxanthhine incorporation assay. Data is expressed as mean±s.d..
(§2) P. falciparum asexual blood stage parasites were cultured in human red blood cells (RBC, Blutspende SRK, Zurich) at a hematocrit of 5% in RPMI 1640 medium. The RPMI 1640 medium (ThermoFisher Scientific #51800−043) was supplemented with the following: 24 mM NaHCO3 (pH 7.3, Sigma-Aldrich #31437−500G-R), 25 mM Hepes (Sigma-Aldrich #H4034−500G), 0.36 mM hypoxanthine (Sigma-Aldrich # H9377−25G), 100 µg mL^-1 neomycin (Sigma-Aldrich #N6386−100G) and 0.5% Albumax II (Thermo Fisher #11021−045). Additionally, 2 mM choline chloride (279 mg/L, Sigma-Aldrich #C7527−100G) was added to the culture to block the induction of sexual commitment as described. ^[31^] The RPMI 1640 medium and components were dissolved in water (Milli-Q purified), stirred for at least 3 h, and then sterile filtered (0.22 μm pore size) with a bottle top filter (Corning # 431118). Parasite cultures were maintained in an atmosphere of 3% O2, 4% CO2, and 93% N2 in air-tight chambers at 37 °C. The [^3H]-hypoxanthine incorporation assay was used to test compound activity in the specific parasite lines as described.^[32^] Briefly, compounds were dissolved in DMSO (10 mM) and diluted in a hypoxanthine-free culture medium. A limiting dilution was performed over a 64-fold range (6-step twofold dilution) in a 96-well plate in duplicates. For every starting concentration, a limiting dilution was performed over a 64-fold range (6-step twofold dilution) in a 96-well plate in two biological duplicates. Parasites were added at 100 µL to each well containing the compound to obtain a final parasitemia of 0.3% and haematocrit of 1.25%. The plates were incubated for 48 h before 0.25 µCi of [^3H]-hypoxanthine was added per well for an additional 24 h. Parasites were harvested on a glass-fiber filter with a Microbeta FilterMate cell harvester (Perkin Elmer, Waltham, USA) and radioactivity was counted using a MicroBeta2 liquid scintillation counter (Perkin Elmer, Waltham, US). The results were recorded, processed by subtraction of the mean background signal obtained from the uninfected RBC controls and expressed as percentage of untreated controls. The fifty percent inhibitory concentration (IC50) was calculated by using nonlinear, four parameter (variable slope) curve fitting as described ^[33^] after importing into GraphPad Prism (version 8.3.0).

[2] = test system: Dd2 Fosmidomycin (Dd2 + pfdxr); format: cell-based, Plasmodium falciparum
Procedure: as §1, §2

[3] = test system: Dd2 DDD107458 (Dd2 + pfeEF2); format: cell-based, Plasmodium falciparum
Procedure: as §1, §2

[4] = test system: Dd2 NITD609 (Dd2 + pfatp4); format: cell-based, Plasmodium falciparum
Procedure: as §1, §2

[5] = test system: Dd2 DSM265 (Dd2 + pfdhodh); format: cell-based, Plasmodium falciparum
Procedure: as §1, §2

[6] = test system: P. falciparum K1; format: cell-based, Plasmodium falciparum
Procedure: as §1, §2

[7] = test system: Dd2 MMV390048 (Dd2 + pfpI4k); format: cell-based, Plasmodium falciparum
Procedure: as §1, §2

[8] = test system: Dd2 GNF156 (Dd2 + pfcarl); format: cell-based, Plasmodium falciparum
Procedure: as §1, §2

[9] = test system: Dd2 ELQ300 (Dd2 + pfcytb); format: cell-based, Plasmodium falciparum
Procedure: as §1, §2

[10] = test system: laboratory-selected Dd2 strains; format: cell-based; conditions: Plasmodium falciparum, DD2, read-out: IC50 against the laboratory-selected Dd2 strains
Procedure: To determine potential cross resistance against compound 31 in parasites harboring mutations that confer resistance to current antimalarials, its activity was assessed against drug‐resistant field isolates as previously described. […] A cross‐resistance was considered when there was more than a 10‐fold shift in the IC50 relative to the NF54 strain. […] Because of this, 31 was tested against laboratory‐selected Dd2 strains, which contained additional resistance variants to preclinical and clinical drug candidates.
P. falciparum asexual blood stage parasites were cultured in human red blood cells (RBC, Blutspende SRK, Zurich) at a hematocrit of 5% in RPMI 1640 medium. […] Parasites were harvested on a glass-fiber filter with a Microbeta FilterMate cell harvester (Perkin Elmer, Waltham, USA) and radioactivity was counted using a MicroBeta2 liquid scintillation counter (Perkin Elmer, Waltham, US). The results were recorded, processed by subtraction of the mean background signal obtained from the uninfected RBC controls and expressed as percentage of untreated controls. The fifty percent inhibitory concentration (IC50) was calculated by using nonlinear, four parameter (variable slope) curve fitting as described ^[33^] after importing into GraphPad Prism (version 8.3.0).

[11] = Plasmodium falciparum, DD2, 72 h

CN1CCN(Cc2ccc(O)c(NC(=O)c3cccc(Oc4cc(C(F)(F)F)ccn4)c3)c2)CC1 [Compound 31, N-(2-hydroxy-5-((4-methylpiperazin-1-yl)methyl)phenyl)-3-((4-(trifluoromethyl)pyridin-2-yl)oxy)benzamide]
IC50 fold shift relative to Dd2 strain ([1]; Dd2): 1.0
IC50 ratio relative to NF54 strain ([1]; Dd2): 5.1
IC50 [1, 11]: 9.3 ± 0.4 nM
IC50 fold shift relative to Dd2 strain ([2]; Dd2 Fosmidomycin): 0.3
IC50 [2, 11]: 2.4 ± 0.6 nM
IC50 fold shift relative to Dd2 strain ([3]; Dd2 DDD107458): 0.6
IC50 [3, 11]: 5.6 ± 0.9 nM
IC50 fold shift relative to Dd2 strain ([4]; Dd2 NITD609): 0.7
IC50 [4, 11]: 6.2 ± 2.5 nM
IC50 fold shift relative to Dd2 strain ([5]; Dd2 DSM265): 0.3
IC50 ([5]; Plasmodium falciparum, 72 h): 2.8 ± 0.5 nM
IC50 ratio relative to NF54 strain ([6]; K1): 0.7
IC50 ([6]; Plasmodium falciparum, K1, 72 h): 1.3 ± 0.2 nM
IC50 fold shift relative to Dd2 strain ([7]; Dd2 MMV390048): 0.5
IC50 [7, 11]: 4.8 ± 1.5 nM
IC50 fold shift relative to Dd2 strain ([8]; Dd2 GNF156): 0.7
IC50 [8, 11]: 6.6 ± 0.5 nM
IC50 fold shift relative to Dd2 strain ([9]; Dd2 ELQ300): 0.5
IC50 [9, 11]: 4.4 ± 0.1 nM
IC50 [10]: 2.4 to 6.6 nM
